PubChem BioAssay (NCI)
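Cultured in 96-well plates, cells were exposed to test compound for 48 hours across five concentrations. GI50 is the concentration that inhibits growth by half. TGI: concentration producing complete growth inhibition.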

Experiments:
Assay in all cases: NCI tumour cell line growth inhibition, 48 h
[1] = test system: K-562 leukemia
[2] = test system: CAKI-1 renal
[3] = test system: HCT-116 colon
[4] = test system: SR leukemia
[5] = test system: HL-60(TB) leukemia
[6] = test system: MCF7 breast
[7] = test system: SN12C renal
[8] = test system: SK-MEL-2 melanoma
[9] = test system: SK-MEL-28 melanoma
[10] = test system: NCI-H23 lung
[11] = test system: M14 melanoma
[12] = test system: SK-OV-3 ovarian
[13] = test system: MDA-MB-231 breast
[14] = test system: SF-539 CNS
[15] = test system: SNB-75 CNS
[16] = test system: MDA-MB-435
[17] = test system: MOLT-4 leukemia
[18] = test system: OVCAR-4 ovarian
[19] = test system: DU-145 prostate
[20] = test system: UACC-62 melanoma
[21] = test system: HOP-62 NSCLC
[22] = test system: U251 CNS
[23] = test system: HS 578T breast
[24] = test system: LOX IMVI melanoma
[25] = test system: HT29 colon
[26] = test system: HOP-92 NSCLC
[27] = test system: TK-10 renal
[28] = test system: SF-295 CNS
[29] = test system: NCI/ADR-RES ovarian
[30] = test system: ACHN renal
[31] = test system: NCI-H460 lung
[32] = test system: HCT-15 colon
[33] = test system: BT-549 breast
[34] = test system: UO-31 renal
[35] = test system: PC-3 prostate
[36] = test system: KM12 colon
[37] = test system: HCC-2998 colon
[38] = test system: SNB-19 CNS
[39] = test system: SW-620 colon
[40] = test system: 786-0 renal
[41] = test system: IGROV1 ovarian
[42] = test system: OVCAR-5 ovarian
[43] = test system: COLO 205 colon
[44] = test system: OVCAR-8 ovarian
[45] = test system: SK-MEL-5 melanoma
[46] = test system: OVCAR-3 ovarian
[47] = test system: SF-268 CNS
[48] = test system: NCI-H226 lung
[49] = test system: A498 renal
[50] = test system: MALME-3M melanoma
[51] = test system: RXF 393 renal
[52] = test system: T-47D breast
[53] = test system: RPMI-8226 leukemia
[54] = test system: NCI-H522 lung
[55] = test system: CCRF-CEM leukemia
[56] = test system: A549 NSCLC
[57] = test system: UACC-257 melanoma

## C/C(=N\NC(=O)c1ccccc1N)c1ccccc1O
[1]
  GI50: 3.72 µM
  TGI: > 100 µM
[2]
  GI50: 2.34 µM
  TGI: > 100 µM
[3]
  GI50: 2.4 µM
  TGI: > 100 µM
[4]
  GI50: 2.83 µM
  TGI: 66.6 µM
[5]
  GI50: 3.01 µM
  TGI: > 100 µM
[6]
  GI50: 2.71 µM
  TGI: > 100 µM
[7]
  GI50: 5.25 µM
  TGI: > 100 µM
[8]
  GI50: 12.5 µM
  TGI: > 100 µM
[9]
  GI50: 8.44 µM
  TGI: > 100 µM
[10]
  GI50: 7.33 µM
  TGI: > 100 µM
[11]
  GI50: 4.29 µM
  TGI: 57.5 µM
[12]
  GI50: 13.4 µM
  TGI: > 100 µM
[13]
  GI50: 5.24 µM
  TGI: > 100 µM
[14]
  GI50: 3.26 µM
  TGI: > 100 µM
[15]
  GI50: > 100 µM
  TGI: > 100 µM
[16]
  GI50: 8.53 µM
  TGI: > 100 µM
[17]
  GI50: 3.17 µM
  TGI: > 100 µM
[18]
  GI50: 2.14 µM
  TGI: > 100 µM
[19]
  GI50: 4.67 µM
  TGI: > 100 µM
[20]
  GI50: 3.39 µM
  TGI: 47.5 µM
[21]
  GI50: 4.4 µM
  TGI: > 100 µM
[22]
  GI50: 2.21 µM
  TGI: > 100 µM
[23]
  GI50: 16.7 µM
  TGI: > 100 µM
[24]
  GI50: 4.09 µM
  TGI: > 100 µM
[25]
  GI50: 8.58 µM
  TGI: > 100 µM
[26]
  GI50: 24.7 µM
  TGI: > 100 µM
[27]
  GI50: 1.5 µM
  TGI: > 100 µM
[28]
  GI50: 3.23 µM
  TGI: > 100 µM
[29]
  GI50: 4.52 µM
  TGI: > 100 µM
[30]
  GI50: 2.63 µM
  TGI: > 100 µM
[31]
  GI50: 1.65 µM
  TGI: > 100 µM
[32]
  GI50: 1.44 µM
  TGI: > 100 µM
[33]
  GI50: 14.9 µM
  TGI: > 100 µM
[34]
  GI50: 1.94 µM
  TGI: > 100 µM
[35]
  GI50: 6.95 µM
  TGI: > 100 µM
[36]
  GI50: 3.92 µM
  TGI: > 100 µM
[37]
  GI50: 5.8 µM
  TGI: > 100 µM
[38]
  GI50: 9.72 µM
  TGI: > 100 µM
[39]
  GI50: 5.05 µM
  TGI: > 100 µM
[40]
  GI50: 5.37 µM
  TGI: 80.4 µM
[41]
  GI50: 3.56 µM
  TGI: > 100 µM
[42]
  GI50: 4.45 µM
  TGI: > 100 µM
[43]
  GI50: 3.23 µM
  TGI: > 100 µM
[44]
  GI50: 3.16 µM
  TGI: > 100 µM
[45]
  GI50: 3.83 µM
  TGI: 57.7 µM
[46]
  GI50: 2.79 µM
  TGI: > 100 µM
[47]
  GI50: 3.05 µM
  TGI: > 100 µM
[48]
  GI50: 5.14 µM
  TGI: > 100 µM
[49]
  GI50: 10.4 µM
  TGI: > 100 µM
[50]
  GI50: 19.4 µM
  TGI: > 100 µM
[51]
  GI50: 11.2 µM
  TGI: > 100 µM
[52]
  GI50: 2.6 µM
  TGI: > 100 µM
[53]
  GI50: 9.51 µM
  TGI: > 100 µM

## CC(C)CNC(=O)c1ccc(NC(=O)N(CC(C)C)C(=O)c2ccc(N)c(OCCCN)c2)c(OCCCN=C(N)N)c1
[1]
  GI50: > 62.5 µM
  TGI: > 62.5 µM
[3]
  GI50: > 62.5 µM
  TGI: > 62.5 µM
[4]
  GI50: > 62.5 µM
  TGI: > 62.5 µM
[5]
  GI50: > 62.5 µM
  TGI: > 62.5 µM
[6]
  GI50: > 62.5 µM
  TGI: > 62.5 µM
[7]
  GI50: > 62.5 µM
  TGI: > 62.5 µM
[8]
  GI50: > 62.5 µM
  TGI: > 62.5 µM
[9]
  GI50: > 62.5 µM
  TGI: > 62.5 µM
[10]
  GI50: > 62.5 µM
  TGI: > 62.5 µM
[11]
  GI50: > 62.5 µM
  TGI: > 62.5 µM
[12]
  GI50: > 62.5 µM
  TGI: > 62.5 µM
[13]
  GI50: > 62.5 µM
  TGI: > 62.5 µM
[14]
  GI50: > 62.5 µM
  TGI: > 62.5 µM
[15]
  GI50: > 62.5 µM
  TGI: > 62.5 µM
[16]
  GI50: > 62.5 µM
  TGI: > 62.5 µM
[17]
  GI50: > 62.5 µM
  TGI: > 62.5 µM
[18]
  GI50: > 62.5 µM
  TGI: > 62.5 µM
[19]
  GI50: > 62.5 µM
  TGI: > 62.5 µM
[20]
  GI50: > 62.5 µM
  TGI: > 62.5 µM
[54]
  GI50: > 62.5 µM
  TGI: > 62.5 µM
[21]
  GI50: > 62.5 µM
  TGI: > 62.5 µM
[22]
  GI50: > 62.5 µM
  TGI: > 62.5 µM
[23]
  GI50: > 62.5 µM
  TGI: > 62.5 µM
[24]
  GI50: > 62.5 µM
  TGI: > 62.5 µM
[25]
  GI50: > 62.5 µM
  TGI: > 62.5 µM
[26]
  GI50: > 62.5 µM
  TGI: > 62.5 µM
[27]
  GI50: > 62.5 µM
  TGI: > 62.5 µM
[28]
  GI50: > 62.5 µM
  TGI: > 62.5 µM
[29]
  GI50: > 62.5 µM
  TGI: > 62.5 µM
[55]
  GI50: > 62.5 µM
  TGI: > 62.5 µM
[30]
  GI50: > 62.5 µM
  TGI: > 62.5 µM
[31]
  GI50: > 62.5 µM
  TGI: > 62.5 µM
[32]
  GI50: > 62.5 µM
  TGI: > 62.5 µM
[33]
  GI50: > 62.5 µM
  TGI: > 62.5 µM
[34]
  GI50: > 62.5 µM
  TGI: > 62.5 µM
[35]
  GI50: > 62.5 µM
  TGI: > 62.5 µM
[36]
  GI50: > 62.5 µM
  TGI: > 62.5 µM
[37]
  GI50: > 62.5 µM
  TGI: > 62.5 µM
[38]
  GI50: > 62.5 µM
  TGI: > 62.5 µM
[39]
  GI50: > 62.5 µM
  TGI: > 62.5 µM
[40]
  GI50: > 62.5 µM
  TGI: > 62.5 µM
[41]
  GI50: > 62.5 µM
  TGI: > 62.5 µM
[56]
  GI50: > 62.5 µM
  TGI: > 62.5 µM
[42]
  GI50: > 62.5 µM
  TGI: > 62.5 µM
[43]
  GI50: > 62.5 µM
  TGI: > 62.5 µM
[44]
  GI50: > 62.5 µM
  TGI: > 62.5 µM
[45]
  GI50: > 62.5 µM
  TGI: > 62.5 µM
[46]
  GI50: > 62.5 µM
  TGI: > 62.5 µM
[47]
  GI50: > 62.5 µM
  TGI: > 62.5 µM
[48]
  GI50: > 62.5 µM
  TGI: > 62.5 µM
[49]
  GI50: > 62.5 µM
  TGI: > 62.5 µM
[57]
  GI50: > 62.5 µM
  TGI: > 62.5 µM
[50]
  GI50: > 62.5 µM
  TGI: > 62.5 µM
[51]
  GI50: > 62.5 µM
  TGI: > 62.5 µM
[52]
  GI50: > 62.5 µM
  TGI: > 62.5 µM
[53]
  GI50: > 62.5 µM
  TGI: > 62.5 µM
